Data from patent publication US5332734A, “Oxazinone derivative” (Japan Tobacco, Incorporated, priority 1991, dated 1994).

Columns and labels:
[1] = target: T1, human leukocyte elastase (HLE) (Homo sapiens, UniProt P08246); experiment: HLE inhibitory activity; format: biochemical; conditions: HLE 5.63 nM, substrate 0.2625 mM, pH 8.6, 37° C.
T1 construct: applying a density gradient centrifugal operation so as to obtain neutrophils; from tissue; host or cells: neutrophils from human venous blood
T1 sequence (P08246 30-267): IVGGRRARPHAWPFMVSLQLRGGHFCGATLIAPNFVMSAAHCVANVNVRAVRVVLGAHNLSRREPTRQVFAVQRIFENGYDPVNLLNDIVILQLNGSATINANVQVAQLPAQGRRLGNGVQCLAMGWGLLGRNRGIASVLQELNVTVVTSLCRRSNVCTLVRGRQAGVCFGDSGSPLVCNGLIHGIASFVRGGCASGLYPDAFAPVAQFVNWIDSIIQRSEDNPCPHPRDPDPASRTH
Method: Inhibotory activities of the oxadinone derivative of the present invention against human leukocyte elastase (HLE), human sputum elastase (HSE), human cathepsin G (HCG), bovine pancreatic α-chymotrypsin (CYT) and bovine pancreatic trypsin (TRY) were measured as follows:
(1) Measurement of HLE Inhibitory Activity
A buffy coat was obtained by subjecting human vein blood to centrifugal separation, followed by adding distilled water to the buffy coat thus obtained for performing a low tension treatment so as to collapse erythrocytes. A mixture consisting of 10 parts of a 33.4% Conrey 400 solution and 24 parts of 9% of Ficoll solution was added to the residual blood cell component, followed by applying a density gradient centrifugal operation so as to obtain neutrophils. The neutrophil fraction was washed three times with Hanks' buffer so as to recover cells, which were frozen at -80° C. for preservation until the cells were used. The cells preserved under a frozen state were thawed with warm water of 37° C. and suspended in the lysis buffer (0.1M Tris-HCl pH 7.5, 1M MgCl2, 0.1% Brij 35), the amount of the buffer being 9 times as much as that of the cells. Then, the suspended cells were collapsed with polotron while cooling the suspension with ice. Then, the suspension was subjected to a centrifugal separation at 100,000×g for one hour so as to remove the precipitate. Also, a buffer (5 mM Tris-HCl pH 7.5, 1M NaCl, 1.1% Brij 35) was added to the supernatant in an amount twice as much as the supernatant so as to prepare a crude solution of an enzyme extract. The crude solution of an enzyme extract was adsorbed on an aprotinin affinity column. Further, the active fraction eluted with a 50 ml glycine-HCl solution (pH 3.3, 1M NaCl, 0.1% Brij 35) was passed through a MONO S ion-exchange chromatography. The active fraction eluted with a 2M NaCl linear gradient was dialyzed and, then, subjected to a freeze-drying so as to prepare an enzyme sample.
A test compound to be detected was dissolved in DMSO (for fluorometry) so as to prepare solutions of various concentrations. Then, the solution of 0.2M Tris-HCl (pH 9.6) was added to each of the solutions in an amount twice as much as the solution so as to prepare a test solution. On the other hand, a synthetic substrate (MeOSuc-Ala-Pro-Val-pNA; FUNAKOSHI) was dissolved in DMSO, followed by adding 0.2M tris-HCl solution (pH 8.6) to the solution in an amount twice as much as the solution so as to prepare a substrate solution.
A microplate (NUNK) provided with 96 wells was used for the reaction. The reaction was repeatedly carried out 6 times for each concentration of the test compound. Each of 140 μl of the enzyme solution (0.2M Tris-HCl, pH 8.6), 30 μl of the test material solution and 30 μl of the substrate solution was pre-incubated for 10 minutes at 37° C. for each well of the microplate. After incubation of a mixture of the enzyme solution and the test material solution for 10 minutes, the substrate solution was added so as to carry out the enzyme reaction. For determining the substrate decomposition, the absorbance (405 run) of the released pNA was measured by a microplate reader (MTP-100; CORONA), and the substrate decomposition was calculated on the basis of the average value of the absorbances repeatedly measured 6 times. The inhibitory concentration of the test compound relative to the decomposition amount of the substrate in the case where the test compound was not added was obtained as IC50 value.

human neutrophils = experiment: Activity for suppressing chemotaxis of human neutrophils (fMLP); format: cell-based; conditions: Neutrophil, 1 h, one hour
Method: Test 2: Activity of the Invented Compound for Suppressing Chemotaxis of Human Neutrophils
A neutrophil fraction (60% percoal fraction having neutrophil purity of at least 90%) was obtained from a human peripheral blood by a percoal density gradient centrifugal separation (2300 rpm, 20 minutes).
1300 μl of a culture medium containing 10^-7 M of fMLP (formylmethionyloycyl-phenylalanine), which is a neutrophil chemotaxis factor, was added in advance to each well of a chemotaxis chamber (KURABO). An inter cell having pores 5 μm in diameter and containing 8×10^5 neutrophils and the compound of the present invention adjusted at a desired concentration was disposed in the chemotaxis chamber. After culturing for one hour at 37° C. within a culturing device containing 5% of carbon dioxide gas, the number of cells migrated from the upper side of inter cell membrane into the lower side of the membrane in the chamber was counted by the method described in the following. Specifically, the lower side surface of the inter cell membrane was washed 4 times with PBS. After fixing the washed surface with methanol, the cells were dyed with hematoxylin-eosine solution. Then, the membrane was removed from the inter cell and put on a sliding glass for air-drying, followed by sealing with Canada balsam. Under this condition, five areas selected at random of the membrane were microscopically observed so as to count the number of cells. An average of the number of cells within the five areas was calculated so as to determine the number of migrated cells.
The function of the invented compound for suppressing chemotaxis was determined by the formula given below, in which the value obtained by subtracting the number of migrating cells in the reference experiment in which fMLP was not added from the number of migrating cells in the experiment in which the compound of the present invention was not added was set at 100:
= 100 - (C - D)/(E - D) × 100
A: Chemotaxis in the case of containing the compound of the present invention;
B: Chemotaxis in the case of not containing the compound of the present invention;
C: The number of migrating cells in the case of adding the compound of the present invention, fMLP;
D: The number of migrating cells in the case of not adding fMLP; and
E: The number of migrating cells in the case of adding only fMLP.

| IC50 [1] | Compound | inhibition at 50 µM (human neutrophils; concentration 50 (μm), fMLP 10^-7 M) | activity at 50 µM (human neutrophils; concentration 50 (μm), without compound = 100, fMLP 10^-7 M) | inhibition at 100 µM (human neutrophils; concentration 100 (μm), fMLP 10^-7 M) | activity at 100 µM (human neutrophils; concentration 100 (μm), without compound = 100, fMLP 10^-7 M) |
| --- | --- | --- | --- | --- | --- |
| 0.73 µM | Cc1cccc2nc([C@H](CC(C)C)NC(=O)OCC3c4ccccc4-c4ccccc43)oc(=O)c12 [Compound 2, 2-{1(S)-[(9-fluorenylmethoxycarbonyl)amino]-3-methylbutyl}-5-methyl-4H-3,1-benzoxazin-4-one] | – | – | – | – |
| 0.24 µM | Cc1cccc2nc([C@@H](NC(=O)OCC3c4ccccc4-c4ccccc43)C(C)C)oc(=O)c12 [Compound 1, 2-{1(S)-[(9-fluorenylmethoxycarbonyl)amino]-2-methylpropyl}-5-methyl-4H-3,1-benzoxazin-4-one] | 89% | 11% | 99% | 1% |
